Experimental data as given in PubChem BioAssay (NCI).
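Results reflect a 48-hour exposure of cells in 96-well plates to compound at five concentrations. At the TGI there is no net growth.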

Key:
Assay in all cases: NCI-60 cell line screen, 48 h
786-0 renal = system: 786-0 renal
A498 renal = system: A498 renal
A549 NSCLC = system: A549 NSCLC
ACHN renal = system: ACHN renal
BT-549 breast = system: BT-549 breast
CAKI-1 renal = system: CAKI-1 renal
CCRF-CEM leukemia = system: CCRF-CEM leukemia
COLO 205 colon = system: COLO 205 colon
DU-145 prostate = system: DU-145 prostate
EKVX NSCLC = system: EKVX NSCLC
HCC-2998 colon = system: HCC-2998 colon
HCT-116 colon = system: HCT-116 colon
HCT-15 colon = system: HCT-15 colon
HL-60(TB) leukemia = system: HL-60(TB) leukemia
HOP-62 NSCLC = system: HOP-62 NSCLC
HOP-92 NSCLC = system: HOP-92 NSCLC
HS 578T breast = system: HS 578T breast
HT29 colon = system: HT29 colon
IGROV1 ovarian = system: IGROV1 ovarian
K-562 leukemia = system: K-562 leukemia
KM12 colon = system: KM12 colon
LOX IMVI melanoma = system: LOX IMVI melanoma
M14 melanoma = system: M14 melanoma
MALME-3M melanoma = system: MALME-3M melanoma
MCF7 breast = system: MCF7 breast
MDA-MB-231 breast = system: MDA-MB-231 breast
MDA-MB-435 = system: MDA-MB-435
MDA-N = system: MDA-N
MOLT-4 leukemia = system: MOLT-4 leukemia
NCI-H226 lung = system: NCI-H226 lung
NCI-H23 lung = system: NCI-H23 lung
NCI-H460 lung = system: NCI-H460 lung
NCI-H522 lung = system: NCI-H522 lung
NCI/ADR-RES ovarian = system: NCI/ADR-RES ovarian
OVCAR-3 ovarian = system: OVCAR-3 ovarian
OVCAR-4 ovarian = system: OVCAR-4 ovarian
OVCAR-5 ovarian = system: OVCAR-5 ovarian
OVCAR-8 ovarian = system: OVCAR-8 ovarian
PC-3 prostate = system: PC-3 prostate
RPMI-8226 leukemia = system: RPMI-8226 leukemia
RXF 393 renal = system: RXF 393 renal
SF-268 CNS = system: SF-268 CNS
SF-295 CNS = system: SF-295 CNS
SF-539 CNS = system: SF-539 CNS
SK-MEL-2 melanoma = system: SK-MEL-2 melanoma
SK-MEL-28 melanoma = system: SK-MEL-28 melanoma
SK-MEL-5 melanoma = system: SK-MEL-5 melanoma
SK-OV-3 ovarian = system: SK-OV-3 ovarian
SN12C renal = system: SN12C renal
SNB-19 CNS = system: SNB-19 CNS
SNB-75 CNS = system: SNB-75 CNS
SR leukemia = system: SR leukemia
SW-620 colon = system: SW-620 colon
T-47D breast = system: T-47D breast
TK-10 renal = system: TK-10 renal
U251 CNS = system: U251 CNS
UACC-257 melanoma = system: UACC-257 melanoma
UACC-62 melanoma = system: UACC-62 melanoma
UO-31 renal = system: UO-31 renal

Measured: TGI

O=C(O)CCC(=O)C(=O)O
> 100 µM: all assays above

O=c1[nH]c2cc(Cl)ccc2nc1/C(=N/Nc1ccccc1)C(O)c1ccco1 (configuration not stated)
> 100 µM: all assays above

CCN(CC)c1ncnc2c1ncn2CCNC(CO)(CO)CO
> 100 µM: all assays above
